Measured values reported in ChEMBL document CHEMBL5506074, “Discovery and Optimization of Tetrahydroisoquinoline Derivatives To Enhance Lysosome Biogenesis as Preclinical Candidates for the Treatment of Alzheimer's Disease” (J Med Chem, 2024).
Active and inactive are the calls of the source. The rule behind the calls is not given here.

Legend:
[1] = Induction of TFEB nuclear translocation in human HeLa cells expressing EGFP at 10 uM measured at 3 hrs by fluorescence microscopic analysis; assay type: functional
[2] = Induction of TFEB nuclear translocation in human HeLa cells expressing EGFP at 30 uM measured at 3 hrs by fluorescence microscopic analysis; assay type: functional
[3] = Induction of TFEB nuclear translocation in human HeLa cells expressing EGFP at 10 uM measured at 6 hrs by fluorescence microscopic analysis; assay type: functional
[4] = Induction of TFEB nuclear translocation in human HeLa cells expressing EGFP at 30 uM measured at 6 hrs by fluorescence microscopic analysis; assay type: functional
[5] = test system: HeLa; assay: Cytotoxicity against human HeLa cells at 30 uM; assay type: toxicity, cell-based
[6] = test system: HeLa; assay: Induction of lysosome biogenesis in human HeLa cells assessed as increase in number of acidified lysosomes at 10 uM incubated for 24 hrs by LysiTracker red staining based flow cytometry analysis; assay type: functional, cell-based

Row | SMILES | Activity [1] | Activity [2] | Activity [3] | Activity [4] | Activity [5] | Activity [6]
1 | c1ccc2c(CCC3c4cc5c(cc4CCN3CC3CCOCC3)OCO5)c[nH]c2c1 (stereo unspecified) | 47% | 86% | 67% | 93% | – | –
2 | COc1cc2c(cc1O)CCN(CC1CCOCC1)C2CCc1c[nH]c2ccccc12 (stereo unspecified) | 20% | 70% | 20% | 80% | Toxic | –
3 | CC(C)N1CCc2cc3c(cc2C1CCc1c[nH]c2ccccc12)OCO3 (stereo unspecified) | 22% | 70% | 33% | 75% | – | Active
4 | Oc1cc2c(cc1O)C(CCc1c[nH]c3ccccc13)N(CC1CCOCC1)CC2 (stereo unspecified) | 10% | 28% | 10% | 60% | Toxic | –
5 | c1ccc2c(CCC3c4cc5c(cc4CCN3CC3CCNCC3)OCO5)c[nH]c2c1 (stereo unspecified) | 22% | 96% | 35% | 100% | Toxic | –
6 | c1ccc2[nH]c(CCC3c4cc5c(cc4CCN3CC3CCOCC3)OCO5)cc2c1 (stereo unspecified) | 5% | 39% | 5% | 39% | – | –
7 | N#Cc1ccc2[nH]cc(CCC3c4cc5c(cc4CCN3CC3CCOCC3)OCO5)c2c1 (stereo unspecified) | 10% | 64% | 10% | 64% | – | –
8 | c1ccc2c(CCC3c4cc5c(cc4CCN3CC3CCOCC3)OCO5)csc2c1 (stereo unspecified) | 5% | 15% | 5% | 20% | – | –
